Reference: ChEMBL document CHEMBL5154916, “Multiparameter Optimization of Naphthyridine Derivatives as Selective α5-GABAA Receptor Negative Allosteric Modulators” (J Med Chem, 2022)
≈ marks a conversion by molar mass, not a printed value. Calls of active or inactive are those of the source. The rule behind the calls is not given here.

How the values were obtained:
[1] = Bioavailability in Wistar rat at 1 mg/kg,po or 1 mg/kg, iv by HPLC-MS/MS analysis; format: ADME, organism-based; details: in vivo
[2] = target: GABA-A receptor; alpha-5/beta-3/gamma-2 (Homo sapiens) (UniProt P18507+P28472+P31644); test: Negative allosteric modulation activity at human recombinant alpha5beta3gamma2 GABAA receptor stably expressed in HEK293 cells assessed as modulation at alpha5 subunit at 1 uM by Patch clamp method; format: cell-based; details: filed as negative allosteric modulator
Cytochrome P450 2C19 = Cytochrome P450 2C19 (Homo sapiens, UniProt P33261); test: Inhibition of CYP2C19 (unknown origin); format: ADME
Cytochrome P450 2C19, sequence (P33261 whole entry): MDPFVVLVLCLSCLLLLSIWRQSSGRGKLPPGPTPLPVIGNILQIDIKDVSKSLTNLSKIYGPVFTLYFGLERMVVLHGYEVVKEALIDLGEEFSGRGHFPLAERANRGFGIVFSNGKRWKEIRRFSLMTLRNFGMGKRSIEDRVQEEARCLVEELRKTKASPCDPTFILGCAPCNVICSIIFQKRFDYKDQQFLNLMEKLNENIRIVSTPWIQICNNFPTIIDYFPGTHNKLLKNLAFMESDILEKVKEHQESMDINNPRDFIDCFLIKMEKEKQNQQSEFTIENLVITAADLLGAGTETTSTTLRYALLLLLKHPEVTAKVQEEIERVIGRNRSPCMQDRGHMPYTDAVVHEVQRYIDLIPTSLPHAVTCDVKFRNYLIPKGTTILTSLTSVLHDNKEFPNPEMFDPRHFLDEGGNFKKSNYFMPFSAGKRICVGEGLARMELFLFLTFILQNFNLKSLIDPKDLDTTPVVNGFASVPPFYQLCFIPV

[3] = target: GABA-A receptor; alpha-1/beta-3/gamma-2 (Homo sapiens) (UniProt P14867+P18507+P28472); test: Negative allosteric modulation activity at human recombinant alpha1beta3gamma2 GABAA receptor stably expressed in HEK293 cells assessed as modulation at alpha5 subunit by Patch clamp method; format: cell-based; details: filed as negative allosteric modulator
[4] = Metabolic stability in human liver microsomes assessed as intrinsic clearance at 2.5 uM; format: ADME, Microsome; details: read-out: CLH
[5] = Thermodynamic solubility of the compound at pH 5; format: physicochemical; details: buffer, read-out: Therm_solubility
[6] = Plasma protein binding in human; format: ADME, cell-free; details: read-out: PPB (converted)
[7] = Half life in Wistar rat total plasma at 1 mg/kg, iv by HPLC-MS/MS analysis; format: ADME, organism-based
Homo sapiens = organism: Homo sapiens; test: Selectivity ratio of Ki for human alpha1GABAA receptor to Ki for alpha2 GABAA receptor
Rattus norvegicus = test: Pro-cognitive activity in neonatal PCP-impaired social recognition Wistar rat model assessed as time spent in recognition of new juveniles at 3 mg/kg, po administered 30 min before acquisition by social recognition test; format: functional, organism-based
[8] = Apparent permeability in human Caco2 cells assessed as permeability damage ratio at 1 uM by HPLC-UV analysis; format: ADME, cell-based; details: caco-2, 1 µM
[9] = target: T1, GABA-A receptor; alpha-5/beta-3/gamma-2 (Homo sapiens, UniProt P18507+P28472+P31644); test: Displacement of [3H]Ro151788 from human recombinant alpha5beta3gamma2 GABAA receptor stably expressed in HEK293 cell membrane assessed as inhibition constant by radioligand binding assay; format: cell membranes
T1 sequence (P18507 whole entry): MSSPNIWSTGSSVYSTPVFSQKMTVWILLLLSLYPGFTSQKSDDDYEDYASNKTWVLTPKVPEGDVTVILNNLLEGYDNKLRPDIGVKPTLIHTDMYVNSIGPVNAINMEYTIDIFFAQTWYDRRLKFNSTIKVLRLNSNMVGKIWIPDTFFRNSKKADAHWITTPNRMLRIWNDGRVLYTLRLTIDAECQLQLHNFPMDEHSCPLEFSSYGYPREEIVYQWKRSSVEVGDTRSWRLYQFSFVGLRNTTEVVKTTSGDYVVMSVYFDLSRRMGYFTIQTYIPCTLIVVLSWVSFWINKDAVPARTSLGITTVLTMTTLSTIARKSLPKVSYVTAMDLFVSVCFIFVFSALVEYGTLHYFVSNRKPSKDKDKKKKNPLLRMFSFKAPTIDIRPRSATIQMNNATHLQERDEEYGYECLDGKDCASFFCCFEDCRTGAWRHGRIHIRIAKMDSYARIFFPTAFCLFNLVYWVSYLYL
T1 sequence (P28472 whole entry): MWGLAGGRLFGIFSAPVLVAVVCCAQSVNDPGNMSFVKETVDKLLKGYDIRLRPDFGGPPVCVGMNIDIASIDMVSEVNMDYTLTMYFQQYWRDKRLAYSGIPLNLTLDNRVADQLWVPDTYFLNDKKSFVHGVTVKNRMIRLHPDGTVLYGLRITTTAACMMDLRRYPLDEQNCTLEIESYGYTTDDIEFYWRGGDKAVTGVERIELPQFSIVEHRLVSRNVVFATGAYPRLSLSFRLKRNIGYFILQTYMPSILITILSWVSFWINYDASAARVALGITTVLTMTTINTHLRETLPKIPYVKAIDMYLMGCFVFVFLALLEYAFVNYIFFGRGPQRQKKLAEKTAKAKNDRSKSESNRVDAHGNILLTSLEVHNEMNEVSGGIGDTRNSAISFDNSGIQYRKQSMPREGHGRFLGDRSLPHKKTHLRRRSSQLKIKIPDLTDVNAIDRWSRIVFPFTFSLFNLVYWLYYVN
T1 sequence (P31644 whole entry): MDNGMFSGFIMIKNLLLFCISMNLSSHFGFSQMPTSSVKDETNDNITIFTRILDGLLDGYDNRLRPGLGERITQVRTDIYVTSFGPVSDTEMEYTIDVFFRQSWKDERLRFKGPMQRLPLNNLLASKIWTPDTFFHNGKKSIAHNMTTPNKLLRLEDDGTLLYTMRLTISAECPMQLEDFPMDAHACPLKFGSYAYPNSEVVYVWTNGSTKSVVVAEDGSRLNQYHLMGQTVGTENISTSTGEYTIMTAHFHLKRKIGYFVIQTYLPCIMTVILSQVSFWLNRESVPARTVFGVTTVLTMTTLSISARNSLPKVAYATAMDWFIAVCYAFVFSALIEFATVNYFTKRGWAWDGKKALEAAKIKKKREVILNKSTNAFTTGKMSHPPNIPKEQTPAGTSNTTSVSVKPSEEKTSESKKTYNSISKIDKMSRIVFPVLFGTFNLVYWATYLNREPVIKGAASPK

[10] = AUC (0 to infinity) in Wistar rat total plasma at 1 mg/kg, iv by HPLC-MS/MS analysis; format: ADME, organism-based; set-up: time infinity, dose 1 mg/kg, route iv
Cytochrome P450 2B6 = target: T2, Cytochrome P450 2B6 (Homo sapiens, UniProt P20813); test: Inhibition of CYP2B6 (unknown origin); format: ADME
T2 sequence (P20813 whole entry): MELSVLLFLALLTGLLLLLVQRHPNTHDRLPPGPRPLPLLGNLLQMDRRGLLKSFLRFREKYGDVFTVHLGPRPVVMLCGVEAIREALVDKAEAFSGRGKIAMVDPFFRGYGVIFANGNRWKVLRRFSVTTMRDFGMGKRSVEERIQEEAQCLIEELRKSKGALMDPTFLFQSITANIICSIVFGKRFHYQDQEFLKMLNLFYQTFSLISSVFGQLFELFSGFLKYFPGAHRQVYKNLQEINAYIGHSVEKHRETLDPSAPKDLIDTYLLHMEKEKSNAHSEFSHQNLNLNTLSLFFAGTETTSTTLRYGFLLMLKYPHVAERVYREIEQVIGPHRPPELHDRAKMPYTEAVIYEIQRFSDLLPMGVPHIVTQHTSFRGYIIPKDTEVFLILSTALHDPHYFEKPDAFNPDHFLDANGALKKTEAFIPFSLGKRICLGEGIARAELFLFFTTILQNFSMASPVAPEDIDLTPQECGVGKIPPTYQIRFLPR

[11] = […] in po dosed Wistar rat assessed as convulsive activity by assessing NOAEL by electroconvulsive test; format: organism-based; details: in vivo
[12] = Plasma protein binding in guinea pig; format: ADME, cell-free, Cavia porcellus; details: read-out: PPB (converted)
[13] = Ratio of drug level in brain to plasma in Wistar rat at 1 mg/kg, iv by HPLC-MS/MS analysis; format: ADME, organism-based; details: brain and plasma, read-out: BPR
[14] = Cardiovascular toxicity in po dosed dog assessed as NOAEL; format: organism-based, Canis lupus familiaris; details: in vivo

- bioavailability [1]: 35.8%
- Activity [2]: -24%
- IC50 (Cytochrome P450 2C19): 14.6 µM
- Activity [3]: -41%
- microsomal CLint at 2.5 µM [4]: 6 µL/min/mg
- solubility thermodynamic [5]: 142 µM (≈ 65.2 µg/mL)
- fraction unbound [6]: 0.014
- half-life [7]: 31.8 min
- Selectivity ratio (Homo sapiens): > 40
- Ki [9]: 0.0041 µM
- AUC(0-inf) [10]: 407 ng·h/mL
- IC50 (Cytochrome P450 2B6): 20.8 µM
- fraction unbound [12]: 0.023
- Kp [13]: 0.54
SMILES: Cc1onc(-c2ccc(F)cc2)c1COc1ccc2c(n1)CCN(C(=O)CS(C)(=O)=O)C2
- Activity (Rattus norvegicus): Active
- Ratio [8]: 0.93
- NOAEL [11]: ≥ 1000 mg/kg
- NOAEL [14]: ≥ 70 mg/kg
